Among the data in PubChem BioAssay (NCI) are TGI and GI50 values, retold here.

What all share (experiment): NCI tumour cell line growth inhibition, 48 h
Experiment [1] has as its system MOLT-4 leukemia.
Experiment [2] concerns NCI-H460 lung.
In experiment [3] the test system is SN12C renal.
For experiment [4], the system named is SK-MEL-2 melanoma.
Experiment [5] deals with HL-60(TB) leukemia.
The test system of experiment [6] is UO-31 renal.
Experiment [7] concerns HCT-116 colon.
The test system of experiment [8] is SNB-19 CNS.
For experiment [9], the system named is MDA-MB-435.
Experiment [10] has as its system DU-145 prostate.

Values joined by “and” are separate entries in the source; they are usually repeats but may differ in a detail not shown here. Identical values can stand only once.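 Five compound concentrations were applied to cells in 96-well plates for 48 hours; endpoints were derived by simple linear interpolation of the resulting dose-response curve. At the GI50, growth is halved. At the TGI there is no net growth.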

Take `COC(=O)C1CCC(Nc2cccc(C(F)(F)F)c2)=N1` (stereo unspecified): the TGI in experiment [1], in [2], in experiment [3], in experiment [4], in experiment [5] and in experiment [6] was > 100 µM in each case. Besides, the TGI in experiment [7] and in experiment [8] was > 100 µM each time.
Take `N#CCC(=O)N/N=C1\C(=O)N(c2ccc(Cl)cc2)C(=O)C(=O)C1c1nc2ccccc2o1` (stereo unspecified): the TGI in [1], in [2], in experiment [3], in experiment [4], in experiment [5] and in experiment [6] was > 100 µM in each case. Also, the TGI in experiment [7] and in experiment [8] was > 100 µM in each case.
With `C=C(CS(=O)(=O)c1ccccc1)[P+](c1ccccc1)(c1ccccc1)c1ccccc1`, the TGI in [1] was 39.6 µM; in experiment [2] it was 66 µM; in [3], 32.4 µM; in experiment [4] it was > 100 µM; in experiment [5], 32.6 µM; in [6] it was 94.3 µM. The TGI is 25.2 µM in [7] and > 100 µM in experiment [8].
Regarding `CC(=O)OC1C(CCl)OC(N=[N+]=[N-])C(OC(C)=O)C1OC(C)=O` (stereo unspecified), the TGI in [1], in experiment [2], in [3], in experiment [4], in experiment [5] and in experiment [6] was > 100 µM each time. For the same compound, the TGI in experiment [7] and in [8] was > 100 µM in each case.
As for `C/C(=N/NC(=O)C(N)=O)C(CC(C(=O)Nc1ccccc1C)/C(C)=N\NC(=O)C(N)=O)C(=O)Nc1ccccc1C` (stereo unspecified), the TGI in experiment [1], in experiment [2], in [3], in experiment [4], in experiment [5] and in experiment [6] was > 100 µM each time. Moreover, in experiment [8], the TGI was > 100 µM.
Turning to `C[C@H]1CC[C@@H]2[C@@H](C)[C@H]3[C@H](C[C@H]4[C@@H]5CC=C6C[C@@H](O)CC[C@]6(C)[C@H]5C[C@H](O)[C@]34C)N2C1`, the TGI in experiment [1], in experiment [9], in experiment [2], in experiment [3], in experiment [4] and in experiment [10] was > 100 µM in each case. Also, the TGI in [6], in experiment [7] and in experiment [8] was > 100 µM each time.
As to `COc1cc2cc[n+]3c4cc(OC)c(OC)cc4c(C)cc3c2cc1OC`, the TGI in [1], in experiment [2], in experiment [3], in [4], in experiment [5] and in experiment [6] was > 100 µM in each case. Further, the TGI in [7] and in experiment [8] was > 100 µM each time.
As to `Clc1ccc(OC2CCO2)cc1Cl` (stereo unspecified), the TGI in [1], in [2], in experiment [3], in [5], in experiment [6] and in [7] was > 100 µM in each case. Also, the TGI in experiment [8] was > 100 µM.
As for `O=C1C(Cl)=C(Nc2cccc(O)c2)C(=O)N1c1ccc(Cl)c(Cl)c1`, the GI50 is 15.1 µM in [1]; 21.9 µM in [9]; 19.1 µM in [2]; 18.1 µM in experiment [3]; 54.8 µM in experiment [4]; 19.3 µM in experiment [10]. In addition, the values for the GI50 in experiment [6], in [7] and in experiment [8] were 31.7 µM, 18.4 µM and 36 µM, respectively. Further, the TGI in experiment [1] is > 100 µM; in experiment [9], 59.6 µM; in experiment [2], 50.5 µM; in [3], 39.4 µM; in [4] it was > 100 µM; in experiment [10], 42.1 µM. In addition, the TGI in experiment [6] was > 100 µM; in experiment [7], 33.9 µM; in experiment [8], > 100 µM.
As for `Nc1ccccc1NC(=O)c1ccc(CN2CCC/C(=C\c3cccc(Cl)c3)C2=O)cc1`, the GI50 in [1] was 0.474 µM; in experiment [2], 0.0962 µM; in [3], 0.708 µM; in experiment [4], 1.23 µM; in experiment [10] it was 0.432 µM; in [5], 0.449 µM. Further, the results for the GI50 in experiment [6], in experiment [7] and in [8] were 1.4 µM, 0.0448 µM and 0.355 µM, respectively. For the same compound, the TGI in experiment [1] is > 100 µM; in [2] it was > 100 µM; in experiment [3], 85.3 µM; in experiment [4], 18.2 µM; in experiment [10], 25.7 µM; in experiment [5], 4.89 µM. Besides, the TGI in [6] was 6.14 µM; in experiment [7], > 100 µM; in [8] it was > 100 µM.
With `CNc1ccc(-c2cc(=O)oc3ccc(Cl)cc23)cc1`, the GI50 in experiment [1] was 0.108 µM and 0.0626 µM; in [2], 0.0487 µM and 0.0441 µM; in [4] it was 0.215 µM and 0.0294 µM; in [10], 0.183 µM and 0.155 µM; in experiment [5], 0.0431 µM and 0.0317 µM; in experiment [6], 0.417 µM and 0.501 µM. Moreover, the GI50 in experiment [7] is 0.044 µM; in [8] it was 0.23 µM and 0.0717 µM. Besides, the TGI in [1] is 50.1 µM; in experiment [2], > 100 µM; in experiment [3], > 100 µM; in [4], 0.0932 µM; in experiment [5] it was 2.05 µM and 1.14 µM; in experiment [6] it was > 100 µM. Moreover, the TGI was 5.23 µM in experiment [7] and > 100 µM in experiment [8].
Take `CCN(CC)CCNC(=O)c1cccc2cc3ccccc3nc12`: the TGI in experiment [1] amounted to 7.95 µM; in experiment [2], 11.6 µM; in experiment [3] it was 51.4 µM; in experiment [4], 19.9 µM; in [5], 24.4 µM; in experiment [6], 22.1 µM. Further, the values for the TGI in [7] and in experiment [8] were 21.8 µM and 64.7 µM, respectively.
Turning to `O=c1c2cc(Br)cc(Br)c2[nH]c(=S)n1-c1ccccc1`, the TGI in experiment [2], in [3], in experiment [4], in experiment [6], in experiment [7] and in experiment [8] was > 100 µM each time.
As to `CN(c1ccccc1)C1C(=O)N(c2ccccc2)C1/C=C/c1ccccc1` (stereo unspecified), the TGI in experiment [1], in experiment [2], in experiment [3], in experiment [4], in experiment [5] and in experiment [6] was > 100 µM throughout. Moreover, the TGI in [7] and in experiment [8] was > 100 µM in each case.
As to `CNC(C)C(=O)N[C@H](C(=O)N1CCC[C@@H]1CN(CCc1ccccc1)C(=O)C(F)(F)F)[C@H](C)OCC#CC#CCO[C@H](C)[C@H](NC(=O)[C@H](C)NC)C(=O)N1CCC[C@H]1CN(CCc1ccccc1)C(=O)C(F)(F)F` (stereo partly specified), the GI50 in experiment [1] is 1.75 µM; in [9], 1.63 µM; in experiment [2], 1.83 µM; in experiment [3], 1.78 µM; in experiment [4] it was < 0.01 µM; in experiment [10], 1.56 µM. The GI50 in experiment [6] was 2.14 µM; in experiment [7], 1.43 µM; in [8], 1.81 µM. Also, the TGI in [1] stood at 4.1 µM; in experiment [9], 3.46 µM; in [2] it was 3.59 µM; in [3], 3.32 µM; in experiment [4], 1.41 µM; in [10] it was 3.05 µM. Moreover, the figures for the TGI in [6], in experiment [7] and in experiment [8] were 3.98 µM, 2.78 µM and 3.43 µM, respectively.
In the case of `N#CC(C#N)=CSc1ccccc1`, the TGI in experiment [1] was > 100 µM; in [2], > 100 µM; in experiment [3], 59.8 µM; in [4] it was 72.3 µM; in experiment [5] it was > 100 µM; in experiment [6], 39.5 µM. For the same compound, the TGI in experiment [7] was 76.3 µM; in experiment [8] it was > 100 µM.
As for `O=C(O)CCC1(Br)CCCCC(Br)C1=O` (stereo unspecified), the TGI in experiment [1], in experiment [2], in experiment [3], in experiment [4], in [5] and in experiment [7] was > 100 µM each time. Also, the TGI in experiment [8] is > 100 µM.
For the compound `CC(=O)OC1CCC2(C)C(=CCC3C2CCC2(C)C(C(C)C(=O)O)CCC32)C1` (stereo unspecified), the TGI in experiment [1], in [9], in experiment [2], in [3], in experiment [4] and in [10] was > 100 µM each time. In addition, the TGI in experiment [6], in [7] and in experiment [8] was > 100 µM in each case.
Regarding `C=C1Oc2nc3ccccc3c(=O)n2C1(C)C`, the TGI in experiment [1], in experiment [2], in experiment [3], in experiment [4], in experiment [5] and in experiment [6] was > 100 µM each time. In addition, the TGI in experiment [7] and in experiment [8] was > 100 µM each time.
On to `COc1cccc(NC(=O)CC(=O)N2NC(C)C(N=Nc3cccc(C(=O)O)c3)C2=O)c1` (stereo unspecified), for which the TGI in experiment [1], in experiment [2], in [3], in experiment [4], in experiment [6] and in [7] was > 100 µM each time. Further, the TGI in experiment [8] is > 100 µM.
For the compound `O=c1c2ccccc2c(=O)c2c1cc(Cl)c1[nH]c3c([nH]c12)c(Cl)cc1c(=O)c2ccccc2c(=O)c13`, the TGI in experiment [1], in experiment [2], in experiment [3], in experiment [4], in experiment [5] and in experiment [6] was > 100 µM throughout. Also, the TGI in experiment [7] and in [8] was > 100 µM in each case.
As to `O=C(O)C1c2ccccc2C(C(=O)O)c2ccccc21` (stereo unspecified), the TGI in experiment [1], in experiment [2], in experiment [3], in experiment [4], in [5] and in experiment [6] was > 100 µM throughout. Further, the TGI in experiment [7] and in experiment [8] was > 100 µM in each case.
Regarding `Cc1cc(C(=O)N2CCN(Cc3ccccc3)CC2)c(C)o1`, the TGI in experiment [1], in experiment [2], in experiment [3], in experiment [5], in [6] and in experiment [7] was > 100 µM in each case. Moreover, the TGI in experiment [8] is > 100 µM.
Turning to `CCC[CH2][Sn]([CH2]CCC)([O]C(=O)c1nccnc1N)[O]C(=O)c1nccnc1N`, the GI50 in experiment [1] is 0.257 µM; in [2], 1.63 µM; in experiment [3], 0.791 µM; in [4] it was 0.424 µM; in experiment [5], 0.262 µM; in [6] it was 1.45 µM. The GI50 was 1.1 µM in experiment [7] and 1.4 µM in [8]. The TGI in experiment [1] worked out at 1.1 µM; in experiment [2] it was 3.33 µM; in experiment [3], 2.04 µM; in experiment [4], 1.62 µM; in experiment [5], 1.42 µM; in experiment [6] it was 2.77 µM. In addition, the TGI in experiment [7] came to 2.3 µM; in [8], 2.69 µM.
For the compound `O=C(O)C#CCO`, the TGI in experiment [1], in [2], in [3], in experiment [4], in experiment [5] and in experiment [6] was > 100 µM each time. Also, the TGI in experiment [7] and in [8] was > 100 µM in each case.
Turning to `NCC1OC(OC2C(CO)OC(OC3C(O)C(N)CC(N)C3OC3OC(CO)C(O)C(O)C3N)C2O)C(N)C(O)C1O` (stereo unspecified), the GI50 in experiment [9], in [2], in experiment [4], in experiment [6], in experiment [7] and in experiment [8] was > 50 mg/L in each case. Moreover, the TGI in experiment [9], in [2], in experiment [4], in experiment [6], in [7] and in experiment [8] was > 50 mg/L each time.
As for `O=C(Nc1ccccc1Br)c1cccc([N+](=O)[O-])c1O`, the TGI in experiment [1] is 10.4 µM; in experiment [2], > 37.9 µM; in [3], > 81.8 µM; in [4], 52.7 µM; in experiment [5], 12.9 µM; in experiment [6] it was 5.73 µM. The TGI is 14.8 µM in [7] and > 100 µM in experiment [8].
